For data set [1], the system named is P. aeruginosa (PAO1, wild-type). The data set is described as follows: MIC on ESKAPE pathogens, P. aeruginosa wild-type. The conditions noted are these: Pseudomonas aeruginosa, PAO1, P. aeruginosa PAO1, wild-type; read-out: MIC Pa WT. The format is cell-based.
Data set [2] has as its system E. coli (D22, lpxC mutant, drug-hypersensitive). Briefly: microbe, parasite or virus in culture. The format is cell-based. As to conditions: Escherichia coli, read-out: MIC Ec D22.
Data set [3] concerns P. aeruginosa (PAO750 efflux-defective mutant, isogenic to PAO1). The data set is described as follows: microbe, parasite or virus in culture. The conditions noted are these: Pseudomonas aeruginosa, PAO1, read-out: MIC Pa efflux. The format is cell-based.
Data set [4] concerns A. baumannii (ATCC 19606, wild-type). The data set is described as follows: MIC on ESKAPE pathogens, A. baumannii. It is filed as cell-based. The conditions noted are these: Acinetobacter baumannii, ATCC19606; A. baumannii ATCC 19606, wild-type; read-out: MIC Ab WT.
Data set [5] deals with E. coli (ΔtolC efflux-defective mutant, isogenic to ATCC 25922). Briefly: microbe, parasite or virus in culture. The format is cell-based. The conditions noted are these: Escherichia coli, ATCC25922, read-out: MIC Ec ΔtolC.
The nature of data set [6]: Cytotoxicity on the MRC-5 cell line (resazurin). The conditions noted are these: human, MRC-5SV2 cells, MRC-5SV2, 3 days. The format is cell-based. On the procedure: MRC-5SV2 cells were cultured in Earl’s MEM + 5% FCSi. Assays were performed in 96-well microtiter plates, each well containing about 10^4 cells/well. After 3 days of incubation with or without compounds, cell viability was assessed fluorimetrically after the addition of resazurin (λex 550 nm, λem 590 nm). The results were expressed as % reduction in cell growth/viability compared to untreated control wells and CC50 was determined. Testing/retesting strategy was as described above for HepG2 cells.
A general note: The colour change of resazurin is a common sign of viable cells or microbes.

For data set [7], the system named is M. tuberculosis strain H37Rv (ATCC 25618). Briefly: MIC on M. tuberculosis by resazurin reduction microplate assay (REMA). The format is cell-based. As to conditions: Mycobacterium tuberculosis, M. tuberculosis H37Rv, read-out: MIC Mtb.
Another data set deals with MsNDH-2 (Mycolicibacterium smegmatis, UniProt A0QYD6). The data set is described as follows: Inhibition of MsNDH-2 (NADH oxidation with menadione, absorbance at 340 nm). It is filed as biochemical, M. smegmatis.
Data set [8] concerns K. pneumonia (ATCC 13833, wild-type). Briefly: MIC on ESKAPE pathogens, K. pneumoniae.
In data set [9] the test system is S. aureus (ATCC 29213, wild-type). The data set is described as follows: MIC on ESKAPE pathogens, S. aureus. It is filed as cell-based. The conditions noted are these: Staphylococcus aureus, ATCC29213.
Data set [10] deals with E. coli (ATCC 25922, wild-type). Briefly: MIC on ESKAPE pathogens, E. coli wild-type. The format is cell-based. As to conditions: Escherichia coli, ATCC25922; E. coli ATCC 25922, wild-type; read-out: MIC Ec WT.
A further data set concerns the target MtNDH-2 (Mycobacterium tuberculosis, UniProt P95160). Briefly: biochemical. Details: species or system M. tuberculosis. As to conditions: MtNDH-2 IC50.
The mark [11] stands for this setting: 95% confidence interval in parentheses, 50 nM enzyme, 50 μM menadione, >100: no significant inhibition at 100 μM.
Where [12] appears, read: same IC50 given in μg/mL to assist comparisons with MICs.

Values after ≈ are worked out from the molar mass of the structure shown. Values joined by “and” are separate entries in the source; they are usually repeats but may differ in a detail not shown here. Equal entries are not always repeated.

MtNDH-2, sequence (P95160 2-463, added parts left off): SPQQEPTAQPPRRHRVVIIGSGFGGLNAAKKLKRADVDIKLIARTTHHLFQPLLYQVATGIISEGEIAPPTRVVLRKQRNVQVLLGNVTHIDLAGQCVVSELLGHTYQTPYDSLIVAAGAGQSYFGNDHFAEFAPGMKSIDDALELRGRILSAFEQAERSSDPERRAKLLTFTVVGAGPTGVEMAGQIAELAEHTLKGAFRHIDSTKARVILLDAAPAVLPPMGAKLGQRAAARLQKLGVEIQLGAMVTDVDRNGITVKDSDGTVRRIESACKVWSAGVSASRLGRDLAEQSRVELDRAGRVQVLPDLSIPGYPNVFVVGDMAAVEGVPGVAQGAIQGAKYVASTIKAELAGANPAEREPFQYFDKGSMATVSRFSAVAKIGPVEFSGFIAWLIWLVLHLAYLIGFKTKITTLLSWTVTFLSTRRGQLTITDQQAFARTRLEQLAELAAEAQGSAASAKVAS
MsNDH-2, sequence (A0QYD6 1-457): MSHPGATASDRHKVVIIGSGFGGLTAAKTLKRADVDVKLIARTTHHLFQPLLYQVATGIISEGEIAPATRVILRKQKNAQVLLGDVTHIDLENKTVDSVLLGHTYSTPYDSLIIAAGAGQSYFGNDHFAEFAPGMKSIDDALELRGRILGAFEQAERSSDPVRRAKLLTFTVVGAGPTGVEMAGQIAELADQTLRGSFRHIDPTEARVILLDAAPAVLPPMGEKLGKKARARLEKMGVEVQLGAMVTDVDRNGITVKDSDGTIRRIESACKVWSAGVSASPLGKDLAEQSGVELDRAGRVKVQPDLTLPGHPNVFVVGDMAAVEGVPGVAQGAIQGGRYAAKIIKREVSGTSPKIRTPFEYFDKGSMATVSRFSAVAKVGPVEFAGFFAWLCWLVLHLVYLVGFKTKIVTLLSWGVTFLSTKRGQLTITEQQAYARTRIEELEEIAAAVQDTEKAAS

Consider `CNCCN(C)c1cc(Nc2ccc3nc(-c4ccc(F)cc4)cc(N)c3c2)nc(N)n1` [Compound 8m, N^4-(4-Amino-2-(4-fluorophenyl)quinolin-6-yl)-N^6-methyl-N^6-(2-(methylamino)ethyl)pyrimidine-2,4,6-triamine], for which the MIC in data set [1] was 32 µg/mL (≈ 74 µM); in data set [2], 32 µg/mL (≈ 74 µM); in [3], 16 µg/mL (≈ 37 µM); in [4], above 64 µg/mL; in data set [5] it was 32 µg/mL (≈ 74 µM); in data set [7], 21.6 µg/mL (≈ 49.9 µM). The MIC in data set [9] and in data set [10] was above 64 µg/mL in each case. Moreover, the IC50 (in general, the concentration that inhibits the measured activity by half) at 3 days was 7600 nM in data set [6] (resazurin) and 3.3 µg/mL in data set [6] (value in parentheses). Moreover, the half-inhibitory concentration (IC50) on MsNDH-2 (setting [11]) is 19000 nM; against MsNDH-2 (setting [12]), 18500 nM; on MtNDH-2, 16000 nM. The “MIC Kp WT” value in data set [8] was above 64 µg/mL.
For the compound `CN(C)c1cc(Nc2ccc3nc(-c4ccc(F)cc4)cc(N)c3c2)nc(N)n1` [Compound 8k, N^4-(4-Amino-2-(4-fluorophenyl)quinolin-6-yl)-N^6,N^6-dimethylpyrimidine-2,4,6-triamine], the MIC in data set [1] is above 64 µg/mL; in data set [2] it was 8 µg/mL (≈ 20.5 µM); in data set [3], 4 µg/mL (≈ 10.3 µM); in data set [4], 8 µg/mL (≈ 20.5 µM); in data set [5] it was 2 µg/mL (≈ 5.14 µM); in data set [7], 5.9 µg/mL (≈ 15.2 µM). Moreover, the values for the MIC in data set [9] and in [10] were 8 µg/mL (≈ 20.5 µM) and 32 µg/mL (≈ 82.2 µM), respectively. The IC50 at 3 days in [6] (resazurin) was 1800 nM; in data set [6] (value in parentheses), 0.7 µg/mL. For the same compound, the IC50 on MsNDH-2 (setting [11]) is 2700 nM; at MsNDH-2 (setting [12]), 2820 nM; on MtNDH-2 it was 1300 nM and 1310 nM. For the same compound, the “MIC Kp WT” value in [8] is 64 µg/mL (≈ 164 µM).
Take `CCOc1cc(Nc2ccc3nc(-c4ccc(F)cc4)cc(N)c3c2)nc(N)n1` [Compound 9a, N^6-(2-Amino-6-ethoxypyrimidin-4-yl)-2-(4-fluorophenyl)quinoline-4,6-diamine]: the MIC in data set [1] is above 128 µg/mL; in data set [2] it was 4 µg/mL (≈ 10.2 µM); in data set [3], 16 µg/mL (≈ 41 µM); in data set [4] it was 2 µg/mL (≈ 5.12 µM); in data set [5], 2 µg/mL (≈ 5.12 µM); in data set [7], 3.4 µg/mL (≈ 8.71 µM). Moreover, the MIC in data set [9] stood at 2 µg/mL (≈ 5.12 µM); in data set [10], 64 µg/mL (≈ 164 µM). Besides, the IC50 at 3 days turned out to be 1600 nM in data set [6] (resazurin) and 0.6 µg/mL in [6] (value in parentheses). The IC50 on MsNDH-2 (setting [11]) was 5300 nM; at MsNDH-2 (setting [12]), 5380 nM; on MtNDH-2, 900 nM and 896 nM. For the same compound, in data set [8], the “MIC Kp WT” value came to 64 µg/mL (≈ 164 µM).

Source of the values: PMC8922281, “Synthesis and In Vitro Biological Evaluation of Quinolinyl Pyrimidines Targeting Type II NADH-Dehydrogenase (NDH-2)” (ACS Infectious Diseases, 2022).
